# In PubChem BioAssay (NCI):
#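 Compound exposure: 48 hours, 5 concentrations, 96-well plates. GI50: concentration for 50% inhibition of growth. TGI: total growth inhibition.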
# What was measured:
# Assay in all cases: NCI-60 cell line screen, 48 h
# SK-MEL-5 melanoma = tested on: SK-MEL-5 melanoma
# U251 CNS = tested on: U251 CNS
# MALME-3M melanoma = tested on: MALME-3M melanoma
# RXF 393 renal = tested on: RXF 393 renal
# NCI-H226 lung = tested on: NCI-H226 lung
# SF-295 CNS = tested on: SF-295 CNS
# NCI-H460 lung = tested on: NCI-H460 lung
# CCRF-CEM leukemia = tested on: CCRF-CEM leukemia
# XF 498 CNS = tested on: XF 498 CNS
SMILES,GI50 (SK-MEL-5 melanoma),TGI (SK-MEL-5 melanoma),GI50 (U251 CNS),TGI (U251 CNS),GI50 (MALME-3M melanoma),TGI (MALME-3M melanoma),GI50 (RXF 393 renal),TGI (RXF 393 renal),GI50 (NCI-H226 lung),TGI (NCI-H226 lung),GI50 (SF-295 CNS),TGI (SF-295 CNS),GI50 (NCI-H460 lung),TGI (NCI-H460 lung),GI50 (CCRF-CEM leukemia),TGI (CCRF-CEM leukemia),TGI (XF 498 CNS)
COc1ccc(COc2cc3oc(=O)c4cc(C(C)O)ccc4c3cc2OC)cc1 (stereo unspecified),12.1 µM,> 40.7 µM,10.5 µM,> 71.6 µM,10.2 µM,40.2 µM,5.33 µM,15.6 µM,12.3 µM,49.8 µM,11.6 µM,65.5 µM,12.6 µM,> 100 µM,> 21.6 µM,> 100 µM,–
NC(=O)CC(N)c1nn[nH]n1 (stereo unspecified),–,> 100 µM,–,> 100 µM,–,> 100 µM,–,> 100 µM,–,> 100 µM,–,> 100 µM,–,> 100 µM,–,> 100 µM,–
Nc1nc(C(=O)O)c(N=Nc2ccccc2)c(=O)[nH]1,–,> 100 µM,–,> 100 µM,–,> 100 µM,–,> 100 µM,–,> 100 µM,–,> 100 µM,–,> 100 µM,–,> 100 µM,–
N#Cc1cccc(Nc2ncc(-c3ccccc3)o2)c1,13 µM,> 25 µM,10.6 µM,> 25 µM,> 25 µM,> 25 µM,5.55 µM,15.8 µM,8.65 µM,> 25 µM,9.99 µM,> 25 µM,11.3 µM,> 25 µM,20.8 µM,> 25 µM,–
Clc1nc(Cl)c2ncn(CCOCCn3cnc4c(Cl)nc(Cl)nc43)c2n1,0.37 µM,1.38 µM,0.174 µM,0.313 µM,0.221 µM,0.464 µM,0.222 µM,0.474 µM,1.56 µM,3.2 µM,1.33 µM,2.83 µM,0.217 µM,0.463 µM,0.226 µM,–,–
C[C@@H](NC(=O)c1ccc(F)cc1)c1ccc2c(c1)CCN2C(=O)C1CCOCC1,> 100 µM,> 100 µM,> 100 µM,> 100 µM,> 100 µM,> 100 µM,> 100 µM,> 100 µM,> 100 µM,> 100 µM,> 100 µM,> 100 µM,> 100 µM,> 100 µM,> 100 µM,> 100 µM,–
COc1ccc(C2CC(c3ccc(N(C)C)cc3)=NN2c2ccc(S(N)(=O)=O)cc2)cc1 (stereo unspecified),1.73 µM,3.37 µM,3.28 µM,> 100 µM,4.12 µM,28.1 µM,2.56 µM,7.52 µM,2.54 µM,8.09 µM,3.42 µM,> 100 µM,2.44 µM,5.53 µM,5.24 µM,> 100 µM,–
N#Cc1c(NC(=O)c2ccccc2F)sc2c1CCCC2,> 22 µM,> 25 µM,> 25 µM,> 25 µM,> 25 µM,> 25 µM,> 25 µM,> 25 µM,> 25 µM,> 25 µM,> 25 µM,> 25 µM,> 19.5 µM,> 25 µM,> 25 µM,> 25 µM,–
COc1ccc(S(=O)(=O)N2CCNCC2)cc1OC,> 100 µM,> 100 µM,> 100 µM,> 100 µM,> 100 µM,> 100 µM,> 100 µM,> 100 µM,> 100 µM,> 100 µM,> 100 µM,> 100 µM,> 100 µM,> 100 µM,> 100 µM,> 100 µM,–
Cc1cc(O)c2c3c(ccc2c1)C(=O)c1c(O)cccc1C3=O,–,1.4 µM,–,> 100 µM,–,0.0846 µM,–,> 100 µM,–,> 100 µM,–,> 100 µM,–,> 27 µM,–,> 100 µM,–
O=C1C(Nc2cccc(O)c2)=C(Sc2ccccc2)C(=O)N1Cc1ccccc1,2.37 µM,17 µM,13 µM,35.4 µM,1.74 µM,9.97 µM,5.07 µM,25.6 µM,2.55 µM,22 µM,13.5 µM,50.2 µM,11.3 µM,29 µM,1.88 µM,10.1 µM,–
COc1cc(C(=O)/C=C/c2c(C(F)(F)F)nc3ccccn23)cc(OC)c1OC,1.62 µM,3.23 µM,1.29 µM,3.31 µM,1.57 µM,3.35 µM,1.87 µM,3.91 µM,3.55 µM,21.7 µM,1.99 µM,3.92 µM,2.01 µM,13.4 µM,4.15 µM,> 100 µM,–
COc1cc(-c2ncn(/C=C\c3nnco3)n2)cc(C(F)(F)F)c1,0.411 µM,4.39 µM,0.0661 µM,17.6 µM,0.464 µM,> 100 µM,0.0307 µM,0.198 µM,0.0312 µM,4.3 µM,0.08 µM,> 100 µM,0.0431 µM,> 100 µM,0.194 µM,> 100 µM,–
CC(=O)CC(=O)CCC(=O)Nc1cccc(C(F)(F)F)c1,–,> 100 µM,–,> 100 µM,–,> 100 µM,–,–,–,> 100 µM,–,> 100 µM,–,> 100 µM,–,> 100 µM,> 100 µM
CC(C)N(Cc1ccc(F)cc1)c1ccc(CO)c(Cl)c1,8.67 µM,21.8 µM,0.37 µM,14.4 µM,14.4 µM,30.3 µM,2.51 µM,19.6 µM,0.054 µM,0.179 µM,0.25 µM,11.8 µM,0.144 µM,10.7 µM,12.1 µM,33.4 µM,–
O=C(c1ccco1)c1c(C(F)(F)F)n([O-])c2cc(F)c(F)cc2[n+]1=O,0.256 µM,1.23 µM,0.153 µM,0.291 µM,2.06 µM,4.21 µM,0.193 µM,0.531 µM,0.926 µM,2.35 µM,0.737 µM,2.17 µM,0.252 µM,5.78 µM,–,> 23 µM,–
COc1ccc(-c2[nH]c3ccccc3c2/C=C(\C#N)S(=O)(=O)c2ccccc2)cc1,0.343 µM,2.73 µM,0.462 µM,> 29.4 µM,1.22 µM,> 82 µM,1.02 µM,> 100 µM,2.02 µM,> 66.4 µM,0.487 µM,–,0.404 µM,> 100 µM,0.807 µM,–,–
